Biological target: MLK-3 (Homo sapiens, UniProt Q16584)
Assay: Biochemical assay for the inhibition of kinase activity for MLK-3 (33P-ATP, HOTSPOT filter binding)
Conditions: activated MLK-3 20 nM, ATP 50 μM, myelin basic protein 20 μM, 20 minutes room temperature
Procedure, shortened: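 Activated MLK-3 (20 nM) with myelin basic protein (20 μM) in 20 mM Hepes pH 7.5, MgCl2, EGTA, Brij35, BSA, Na3VO4, DTT, 1% DMSO. Started with 33P-ATP at 50 μM ATP, 20 min at room temperature; % activity by HOTSPOT filter binding.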

Sequence of MLK-3 (Q16584 whole entry): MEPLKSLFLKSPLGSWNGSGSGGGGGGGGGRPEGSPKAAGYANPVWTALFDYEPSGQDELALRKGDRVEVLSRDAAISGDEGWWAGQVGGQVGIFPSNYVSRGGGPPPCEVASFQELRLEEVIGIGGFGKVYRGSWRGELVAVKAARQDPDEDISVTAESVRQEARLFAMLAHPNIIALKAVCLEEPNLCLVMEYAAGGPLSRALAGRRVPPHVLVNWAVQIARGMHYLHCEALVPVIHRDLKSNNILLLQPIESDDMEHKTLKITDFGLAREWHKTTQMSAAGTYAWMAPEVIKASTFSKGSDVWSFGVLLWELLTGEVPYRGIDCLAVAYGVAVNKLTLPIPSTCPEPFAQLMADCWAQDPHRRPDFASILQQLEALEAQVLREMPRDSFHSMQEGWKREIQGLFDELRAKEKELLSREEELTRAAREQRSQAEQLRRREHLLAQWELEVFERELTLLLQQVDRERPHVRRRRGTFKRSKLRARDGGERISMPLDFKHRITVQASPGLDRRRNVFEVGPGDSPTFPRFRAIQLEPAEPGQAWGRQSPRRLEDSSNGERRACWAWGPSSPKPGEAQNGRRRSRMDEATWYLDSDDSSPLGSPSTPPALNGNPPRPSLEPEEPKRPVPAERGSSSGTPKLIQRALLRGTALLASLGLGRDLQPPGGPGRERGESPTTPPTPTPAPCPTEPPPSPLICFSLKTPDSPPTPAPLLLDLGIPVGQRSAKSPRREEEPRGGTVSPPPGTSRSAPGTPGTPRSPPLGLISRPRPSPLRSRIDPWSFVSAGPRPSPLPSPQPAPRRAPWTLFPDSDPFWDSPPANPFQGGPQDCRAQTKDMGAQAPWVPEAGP

IC50 [nM]	SMILES
100 to 500	COc1cc(Nc2ccc3ncc(-c4cc5ccccc5s4)n3n2)ccc1OCCCO [Compound 27, 3-(4-(3-(benzo[b]thiophen-2-yl)imidazo[1,2-b]pyridazin-6-ylamino)-2-methoxyphenoxy)propan-1-ol]
500 to 1000	COc1ccc(Nc2ccc3ncc(-c4cc5ccccc5s4)n3n2)cc1C(=O)O [Compound 43, 5-(3-(benzo[b]thiophen-2-yl)imidazo[1,2-b]pyridazin-6-ylamino)-2-methoxybenzoic acid]
500 to 1000	COc1ccc2cc(-c3cnc4ccc(N[C@H]5CC[C@H](O)CC5)nn34)ccc2c1 [Compound 163, trans-4-(3-(2-methoxynaphthalen-6-yl)imidazo[1,2-b]pyridazin-6-ylamino)cyclohexanol]
500 to 1000	O[C@H]1CC[C@H](Nc2ccc3ncc(-c4csc5ccccc45)n3n2)CC1 [Compound 90, trans-4-(3-(benzo[b]thiophen-3-yl)imidazo[1,2-b]pyridazin-6-ylamino)cyclohexanol]
500 to 1000	O=C(O)c1cc(Nc2ccc3ncc(-c4cc5ccccc5s4)n3n2)ccc1OCCCO [Compound 44, 5-(3-(benzo[b]thiophen-2-yl)imidazo[1,2-b]pyridazin-6-ylamino)-2-(3-hydroxypropoxy)benzoic acid]
100 to 500	O[C@H]1CCC[C@@H](Nc2ccc3ncc(-c4cc5ccccc5s4)n3n2)C1 (relative stereo) [Compound 122, cis-3-(3-(benzo[b]thiophen-2-yl)imidazo[1,2-b]pyridazin-6-ylamino)cyclohexanol]
< 100	COc1cc2cc(-c3cnc4ccc(NC5CCC[C@H](O)C5)nn34)sc2cc1OC (stereo in doubt) [Compound 174, 3-(3-(5,6-dimethoxybenzo[b]thiophen-2-yl)imidazo[1,2-b]pyridazin-6-ylamino)cyclohexanol]
100 to 500	COc1ccc2cc(-c3cnc4ccc(Nc5ccc(OC)c(OC)c5)nn34)[nH]c2c1 [Compound 4, 3-(6-methoxy-1H-indol-2-yl)-N-(3,4-dimethoxyphenyl)imidazo[1,2-b]pyridazin-6-amine]
< 100	COc1ccc(Nc2ccc3ncc(-c4cc5cccc(O)c5s4)n3n2)cc1OC [Compound 79, 2-(6-(3,4-dimethoxyphenylamino)imidazo[1,2-b]pyridazin-3-yl)benzo[b]thiophen-7-ol]
< 5000	COc1ccc(Nc2ccc3ncc(-c4cc5cc(OC)c(OC)c(OC)c5s4)n3n2)cc1OC [Compound 83, 3-(5,6,7-trimethoxybenzo[b]thiophen-2-yl)-N-(3,4-dimethoxyphenyl)imidazo[1,2-b]pyridazin-6-amine]
100 to 500	COc1ccc2sc(-c3cnc4ccc(Nc5ccc(OC)c(OC)c5)nn34)cc2c1 [Compound 167, 3-(5-methoxybenzo[b]thiophen-2-yl)-N-(3,4-dimethoxyphenyl)imidazo[1,2-b]pyridazin-6-amine]
< 5000	CN1CCN(CCCNc2ccc3ncc(-c4cc5ccccc5s4)n3n2)CC1 [Compound 136, 3-(benzo[b]thiophen-2-yl)-N-(3-(4-methylpiperazin-1-yl)propyl)imidazo[1,2-b]pyridazin-6-amine]
100 to 500	CCOc1ccc(Nc2ccc3ncc(-c4cc5cccc(OC)c5s4)n3n2)cc1OC [Compound 181, N-(4-ethoxy-3-methoxyphenyl)-3-(7-methoxybenzo[b]thiophen-2-yl)imidazo[1,2-b]pyridazin-6-amine]
< 5000	OC[C@H]1CCCN1c1ccc2ncc(-c3cc4ccccc4s3)n2n1 [Compound 126, ((R)-1-(3-(benzo[b]thiophen-2-yl)imidazo[1,2-b]pyridazin-6-yl)pyrrolidin-2-yl)methanol]
100 to 500	O=C(O)c1cccc(Nc2ccc3ncc(-c4ccc5ccccc5c4)n3n2)c1 [Compound 63, 3-(3-(naphthalen-3-yl)imidazo[1,2-b]pyridazin-6-ylamino)benzoic acid]
100 to 500	COc1cc(Nc2ccc3ncc(-c4cc5ccccc5s4)n3n2)ccc1O [Compound 24, 4-(3-(benzo[b]thiophen-2-yl)imidazo[1,2-b]pyridazin-6-ylamino)-2-methoxyphenol]
100 to 500	COc1cc2sc(-c3cnc4ccc(N[C@H]5CC[C@H](O)CC5)nn34)cc2c(OC)c1OC [Compound 176, trans-4-(3-(4,5,6-trimethoxybenzo[b]thiophen-2-yl)imidazo[1,2-b]pyridazin-6-ylamino)cyclohexanol]
< 100	COc1cc2cc(-c3cnc4ccc(N[C@H]5CC[C@H](O)CC5)nn34)sc2c(OC)c1OC [Compound 179, trans-4-(3-(5,6,7-trimethoxybenzo[b]thiophen-2-yl)imidazo[1,2-b]pyridazin-6-ylamino)cyclohexanol]
500 to 1000	COc1ccc(Nc2ccc3ncc(-c4ccc5[nH]ccc5c4)n3n2)cc1OC [Compound 53, 3-(1H-indol-5-yl)-N-(3,4-dimethoxyphenyl)imidazo[1,2-b]pyridazin-6-amine]
< 5000	COc1cc(Nc2ccc3ncc(-c4cc5cccc(OC)c5s4)n3n2)ccc1OC(F)F [Compound 183, N-(4-(difluoromethoxy)-3-methoxyphenyl)-3-(7-methoxybenzo[b]thiophen-2-yl)imidazo[1,2-b]pyridazin-6-amine]
